# Data as given in ChEMBL document CHEMBL1201862, “PubChem BioAssay data set” (2004).
#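 A five-concentration, 48-hour dose response in 96-well plates underlies each endpoint, interpolated linearly between surrounding concentrations. GI50 is the concentration that inhibits growth by half.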 The source made the active and inactive calls. Rule as the data show it: active = GI50 up to about 1.1 µM and inactive = higher.
# Legend:
# Assay in all cases: NCI-60 cell line screen, 48 h
# 786-0 = tested on: 786-0
# A498 = tested on: A498
# A549 = tested on: A549
# ACHN = tested on: ACHN
# BT-549 = tested on: BT-549
# CAKI-1 = tested on: CAKI-1
# CCRF-CEM = tested on: CCRF-CEM
# COLO 205 = tested on: COLO 205
# DU-145 = tested on: DU-145
# EKVX = tested on: EKVX
# HCC 2998 = tested on: HCC 2998
# HCT-116 = tested on: HCT-116
# HCT-15 = tested on: HCT-15
# HL-60 = tested on: HL-60
# HOP-62 = tested on: HOP-62
# HOP-92 = tested on: HOP-92
# HT-29 = tested on: HT-29
# Hs-578T = tested on: Hs-578T
# IGROV-1 = tested on: IGROV-1
# K562 = tested on: K562
# KM12 = tested on: KM12
# LOX IMVI = tested on: LOX IMVI
# M14 = tested on: M14
# MCF7 = tested on: MCF7
# MDA-MB-231 = tested on: MDA-MB-231
# MDA-MB-435 = tested on: MDA-MB-435
# MDA-N = tested on: MDA-N
# MOLT-4 = tested on: MOLT-4
# NCI-H226 = tested on: NCI-H226
# NCI-H23 = tested on: NCI-H23
# NCI-H460 = tested on: NCI-H460
# NCI/ADR-RES = tested on: NCI/ADR-RES
# OVCAR-3 = tested on: OVCAR-3
# OVCAR-4 = tested on: OVCAR-4
# OVCAR-5 = tested on: OVCAR-5
# OVCAR-8 = tested on: OVCAR-8
# PC-3 = tested on: PC-3
# RPMI-8226 = tested on: RPMI-8226
# RXF 393 = tested on: RXF 393
# SF-268 = tested on: SF-268
# SF-295 = tested on: SF-295
# SF-539 = tested on: SF-539
# SK-MEL-28 = tested on: SK-MEL-28
# SK-MEL-2 = tested on: SK-MEL-2
# SK-MEL-5 = tested on: SK-MEL-5
# SK-OV-3 = tested on: SK-OV-3
# SN12C = tested on: SN12C
# SNB-19 = tested on: SNB-19
# SNB-75 = tested on: SNB-75
# SR = tested on: SR
# T47D = tested on: T47D
# TK-10 = tested on: TK-10
# U-251 = tested on: U-251
# UACC-257 = tested on: UACC-257
# UACC-62 = tested on: UACC-62
# UO-31 = tested on: UO-31
# Malme-3M = tested on: Malme-3M
# NCI-H522 = tested on: NCI-H522
# SW-620 = tested on: SW-620
smiles,measurement,setting,value
Cc1c(C(=O)c2ccccc2)[n+]([O-])c2cc(Cl)c(Cl)cc2[n+]1[O-],GI50,786-0,15.8 µM (inactive)
same,GI50,A498,19.6 µM (inactive)
same,GI50,A549,13 µM (inactive)
same,GI50,ACHN,14.3 µM (inactive)
same,GI50,BT-549,16.9 µM (inactive)
same,GI50,CAKI-1,3.03 µM (inactive)
same,GI50,CCRF-CEM,19.3 µM (inactive)
same,GI50,COLO 205,18.1 µM (inactive)
same,GI50,DU-145,16.1 µM (inactive)
same,GI50,EKVX,13.5 µM (inactive)
same,GI50,HCC 2998,1.56 µM (inactive)
same,GI50,HCT-116,13.5 µM (inactive)
same,GI50,HCT-15,1.99 µM
same,GI50,HL-60,2.04 µM (inactive)
same,GI50,HOP-62,15.9 µM (inactive)
same,GI50,HOP-92,2.96 µM (inactive)
same,GI50,HT-29,14.4 µM (inactive)
same,GI50,Hs-578T,6.34 µM (inactive)
same,GI50,IGROV-1,1.97 µM (inactive)
same,GI50,K562,4.01 µM (inactive)
same,GI50,KM12,8.65 µM (inactive)
same,GI50,LOX IMVI,3.72 µM (inactive)
same,GI50,M14,2.87 µM (inactive)
same,GI50,MCF7,10.7 µM (inactive)
same,GI50,MDA-MB-231,11.1 µM (inactive)
same,GI50,MDA-MB-435,11.9 µM (inactive)
same,GI50,MDA-N,12.3 µM (inactive)
same,GI50,MOLT-4,2.73 µM (inactive)
same,GI50,NCI-H226,2.51 µM (inactive)
same,GI50,NCI-H23,2.39 µM (inactive)
same,GI50,NCI-H460,15.9 µM (inactive)
same,GI50,NCI/ADR-RES,17.9 µM (inactive)
same,GI50,OVCAR-3,12.4 µM (inactive)
same,GI50,OVCAR-4,4.11 µM (inactive)
same,GI50,OVCAR-5,17.9 µM (inactive)
same,GI50,OVCAR-8,10 µM (inactive)
same,GI50,PC-3,17.4 µM (inactive)
same,GI50,RPMI-8226,4.7 µM (inactive)
same,GI50,RXF 393,6.08 µM (inactive)
same,GI50,SF-268,15.3 µM (inactive)
same,GI50,SF-295,14.9 µM (inactive)
same,GI50,SF-539,17.2 µM (inactive)
same,GI50,SK-MEL-28,14.7 µM (inactive)
same,GI50,SK-MEL-2,5.92 µM (inactive)
same,GI50,SK-MEL-5,15.2 µM (inactive)
same,GI50,SK-OV-3,19.6 µM (inactive)
same,GI50,SN12C,15.2 µM (inactive)
same,GI50,SNB-19,16.6 µM (inactive)
same,GI50,SNB-75,0.0368 µM (active)
same,GI50,SR,1.54 µM (inactive)
same,GI50,T47D,0.889 µM (active)
same,GI50,TK-10,11.5 µM (inactive)
same,GI50,U-251,15.6 µM (inactive)
same,GI50,UACC-257,3.17 µM (inactive)
same,GI50,UACC-62,11.4 µM (inactive)
same,GI50,UO-31,11.8 µM (inactive)
Nc1ccn(C2OC(CO[PH](=O)OC3C(CO[PH](=O)OC4C(CO[PH](=O)OC5C(CO[PH](=O)OC6C(CO[PH](=O)OC7C(CO[PH](=O)OC8C(CO[PH](=O)OC9C(CO[PH](=O)OC%10C(CO[PH](=O)OC%11C(CO)OC(n%12ccc(N)nc%12=O)C%11(F)F)OC(n%11ccc(N)nc%11=O)C%10(F)F)OC(n%10ccc(N)nc%10=O)C9(F)F)OC(n9ccc(N)nc9=O)C8(F)F)OC(n8ccc(N)nc8=O)C7(F)F)OC(n7ccc(N)nc7=O)C6(F)F)OC(n6ccc(N)nc6=O)C5(F)F)OC(n5ccc(N)nc5=O)C4(F)F)OC(n4ccc(N)nc4=O)C3(F)F)C(O)C2(F)F)c(=O)n1 (configuration not stated),GI50,A498,0.114 µM (active)
same,GI50,A549,0.016 µM (active)
same,GI50,ACHN,0.00533 µM (active)
same,GI50,BT-549,0.0661 µM (active)
same,GI50,CAKI-1,0.0316 µM (active)
same,GI50,CCRF-CEM,0.0172 µM (active)
same,GI50,COLO 205,0.741 µM (active)
same,GI50,DU-145,0.0109 µM (active)
same,GI50,EKVX,5.46 µM (inactive)
same,GI50,HCC 2998,0.0805 µM (active)
same,GI50,HCT-116,0.0134 µM (active)
same,GI50,HCT-15,0.442 µM
same,GI50,HL-60,0.0193 µM (active)
same,GI50,HOP-62,0.0581 µM (active)
same,GI50,HOP-92,0.155 µM (active)
same,GI50,HT-29,0.112 µM (active)
same,GI50,Hs-578T,2.22 µM (inactive)
same,GI50,IGROV-1,0.912 µM (active)
same,GI50,K562,1.49 µM (inactive)
same,GI50,KM12,5.38 µM (inactive)
same,GI50,LOX IMVI,0.0418 µM (active)
same,GI50,MCF7,0.0103 µM (active)
same,GI50,MDA-MB-231,1.4 µM (inactive)
same,GI50,MDA-MB-435,0.0526 µM (active)
same,GI50,MDA-N,0.0442 µM (active)
same,GI50,MOLT-4,0.0333 µM (active)
same,GI50,Malme-3M,0.391 µM (active)
same,GI50,NCI-H226,9.44 µM (inactive)
same,GI50,NCI-H23,0.0423 µM (active)
same,GI50,NCI-H460,0.0208 µM (active)
same,GI50,NCI-H522,1.43 µM (inactive)
same,GI50,NCI/ADR-RES,0.051 µM (active)
same,GI50,OVCAR-3,17.1 µM (inactive)
same,GI50,OVCAR-4,10 µM (inactive)
same,GI50,OVCAR-5,0.111 µM (active)
same,GI50,OVCAR-8,0.0156 µM (active)
same,GI50,PC-3,5.5 µM (inactive)
same,GI50,RPMI-8226,0.0582 µM (active)
same,GI50,SF-268,0.0285 µM (active)
same,GI50,SF-295,0.0697 µM (active)
same,GI50,SF-539,0.0112 µM (active)
same,GI50,SK-MEL-28,0.594 µM (active)
same,GI50,SK-MEL-2,2.18 µM (inactive)
same,GI50,SK-MEL-5,1.73 µM (inactive)
same,GI50,SK-OV-3,0.979 µM (active)
same,GI50,SN12C,0.0661 µM (active)
same,GI50,SNB-19,0.0259 µM (active)
same,GI50,SNB-75,0.0254 µM (active)
same,GI50,SR,0.0183 µM (active)
same,GI50,SW-620,0.577 µM (active)
same,GI50,T47D,0.553 µM (active)
same,GI50,TK-10,3.03 µM (inactive)
same,GI50,U-251,0.0373 µM (active)
same,GI50,UACC-257,0.34 µM (active)
same,GI50,UACC-62,0.0466 µM (active)
same,GI50,UO-31,0.0213 µM (active)
